Results: US11045473B2, “Compositions and methods for therapy of prostate cancer using drug combinations to target polyamine biosynthesis and related pathways” (Health Research, Inc., priority 2015, dated 2021)
Entries after “also recorded” stand apart in the source; their conditions may differ.

Tests used:
Assay type in all cases: cell-based, human
ODC1 = assay: Western blot of ODC1 in LNCaP cells treated with BENSpm; conditions: BENSpm for 96 hours
Experimental: (§1) FIG. 11 depicts a Western blot showing AMD1, ODC1, SAT1 and B-actin protein expression in wild type LNCaP cells pretreated with +/−DHT for 24 hours followed by BENSpm for 96 hours.
(§2) We next analyzed whether the metabolic stress in CaP cells caused by high biosynthetic flux to maintain polyamine pools can be enhanced by increasing the activity of SAT1. We tested whether this could cause increased secretion of acetylated polyamines, putting intracellular pools in deficit, which should necessitate more biosynthesis, and should therefore potentiate any benefit of inhibiting the MSP. To conduct this analysis we used LNCaP cells that stably overexpress SAT1 in a Tet-off system (LNG53 cells, described in Kee, K., et al. J Biol Chem 279, 27050-27058 (2004)).

SAT1 [1] = assay: SAT1 activity in response to BENSpm treatment
From the text: as §2

SAT1 [2] = assay: SAT1 mRNA and protein expression in LNCaP cells treated with BENSpm; conditions: BENSpm 0.1 to 10 μM
Experimental: as §1, §2

LNCaP = assay: Proliferation of wild type LNCaP, BENSpm 24 h pre-treatment then 96 hr MTDIA
Experimental: (§3) Tet was removed 24 hours prior to 96 hr treatment with MTDIA. […] Cells were pre-treated with BENSpm for 24 hours followed by 96 hr treatment with MTDIA.
as §2

DU145 = assay: Proliferation of DU145, BENSpm 24 h pre-treatment then 96 hr MTDIA; conditions: AR negative DU145, 2.5 μM BENSpm
Experimental: as §3, §2

AMD1 = assay: Western blot of AMD1 in LNCaP cells treated with BENSpm; conditions: BENSpm for 96 hours
Experimental: as §1, §2

MTAP [3] = assay: Western blot of MTAP protein expression in FaDu; conditions: 10 and 20 uM MTA for 4 days
Experimental: (§4) FIG. 9. (A) Proliferation curves for LNCaP, DU145 and PC3 treated with MTDIA in the absence or presence of 10 or 20 uM MTA, for 4 and (B) 8 days. […] (C) Western blot analysis of FaDu, LNCaP, and DU145 cells after indicated treatments of MTA (0, 10, or 20 uM) or the respective 4 day IC25 and IC50 dose of MTDIA for each cell line plus or minus MTA immunoblotted with antibodies against MTAP, SMS, and SRM, with B-actin as a loading control. Western blot images are representative of biological triplicates.
(§5) Western Blotting—Whole cell extracts were prepared in RIPA buffer (150 mM NaCl, 1.0% NP-40, 0.5% deoxycholate, 0.1% SDS, 50 mM Tris-HCl pH 8.0, 5 mM EDTA and 0.5 mM PMSF) supplemented with 1× proteinase inhibitor. Protein concentrations were determined by Bradford Assay (Thermo Scientific, Cat #1856209). […] MTAP for Westerns was purchased from Proteintech™ (Cat #11475-1-AP. SRM and SMS were purchased from Abcam® (Cat #ab111884 and ab156879). B-actin antibody for Westerns was purchased from Sigma-Aldrich (Cat #A5441) and GAPDH was from Santa Cruz Biotecnology Inc. (Cat #sc-25778). Films were scanned using the Biorad ChemiDoc XRS, and band intensities were calculated using Image Lab™. Intensity values were normalized to B-actin loading control band intensities and made relative to control treatment conditions.

MTAP [4] = assay: Western blot of MTAP protein expression in LNCaP; conditions: MTA treatment
Experimental: as §4, §5

MTAP [5] = assay: Western blot of MTAP protein expression in DU145; conditions: DU145, 10 and 20 uM MTA for 4 days
Experimental: as §4, §5

`CCNCCCNCCCNCCCNCC` [BENSpm, N(1),N(11)-bisethylnorspermine] was tested, and the “effect on ODC1” value (ODC1) was “minimal effects”, the “SAT1 activity, dose dependent increase” value (SAT1 [1]; (+) dihydrotestosterone (DHT) conditions) was 17-40 fold and the “SAT1 activity, dose dependent increase” value (SAT1 [1]; (−) DHT conditions) was 6-20 fold. For the same compound, the “SAT1 mRNA” value (SAT1 [2]) was “increased”, the SAT1 protein (SAT1 [2]) was “increased” and the “sensitivity to MTDIA” value (LNCaP; 2.5 μM BENSpm) was “more sensitive to MTDIA; also recorded: greatly increased sensitivity to MTDIA”. For the same compound, the effect on proliferation (LNCaP; 2.5 μM BENSpm alone) was “no effect on proliferation”, the “sensitivity to MTDIA” value (DU145) was “more sensitive to MTDIA; also recorded: strongly increased sensitivity to MTDIA” and the “effect on AMD1” value (AMD1) was “minimal effects”.
`CSC[C@H]1O[C@@H](n2cnc3c(N)ncnc32)[C@H](O)[C@@H]1O` [MTA] was tested, and the MTAP protein expression (MTAP [3]) was “slightly decreased”, the MTAP levels (MTAP [4]) was “unchanged” and the MTAP protein expression (MTAP [5]) was “slightly increased”.
